According to US20080114047A1 (priority 2003, published 2008):
“And” between values parts separate entries of the source, which are not always exact repeats. Equal entries are not always repeated. Where two headings read alike, the source gives them in different places.

Legend:
[1] = tested on: Trypanosoma brucei rhodesiense; experiment: Anti-protozoan data: T.b.r. IC50; format: cell-based; conditions: read-out: T.b.r. IC50
Candida albicans = experiment: Anti-fungal data: Candida albicans; format: cell-based; conditions: for MFC / MIC80: strain A39; for MIC: strain A39, read-out: Candida albicans (A39) MIC100
DNA = DNA binding ΔTm
Plasmodium falciparum = experiment: Anti-protozoan data: P. falcip. IC50; format: cell-based; conditions: read-out: P. falcip. IC50
Trypanosoma cruzi = experiment: Anti-protozoan data: T. cruzi IC50; format: cell-based; conditions: read-out: T. cruzi IC50
[2] = tested on: L. donovani axenic amastigotes; experiment: In vitro anti-leishmania activity (IC50 vs. L. donovani axenic amastigotes); format: cell-based; conditions: Leishmania donovani
Aspergillus fumigatus = experiment: Anti-fungal data: Aspergillus fumigatus; format: cell-based; conditions: for MFC / MIC80: strain DUMC 168.95; for MIC: strain DUMC 168.95, read-out: Aspergillus. Fumigatus (DUMC 168.95) MIC100
[3] = tested on: Mycobacterium tuberculosis; experiment: Compounds tested against Mycobacterium tuberculosis (MIC90); format: cell-based
Cryptococcus neoformans = experiment: Anti-fungal data: Cryptococcus neoformans; format: cell-based
[4] = Tables VI(a), VI(c), read-out: Leishmania donovani IC50
[5] = axenic amastigotes, Tables I-V, read-out: IC50 vs. L. donovani
[6] = Table VII(b), read-out: M. tb MIC90

| SMILES | IC50 (in vitro) [nM] | IC50 ([1]; Tables VI(a), VI(c)) [nM] | MFC (Candida albicans) [µg/mL] | MIC80 (Candida albicans) [µg/mL] | MIC (Candida albicans) [µg/mL] | melting point [°C] | DNA binding Δ Tm (DNA; Tables VI(a), VI(c)) | IC50 (Plasmodium falciparum; Tables VI(a), VI(c)) [nM] | IC50 (Trypanosoma cruzi; Tables VI(a), VI(c)) [nM] | IC50 [2, 4] [nM] | IC50 [2, 5] [nM] | MFC (Aspergillus fumigatus) [µg/mL] | MIC80 (Aspergillus fumigatus) [µg/mL] | MIC (Aspergillus fumigatus) [µg/mL] | MIC90 ([3]; read-out: M. tb. MIC90) | other results |
| --- | --- | --- | --- | --- | --- | --- | --- | --- | --- | --- | --- | --- | --- | --- | --- | --- |
| Cl.Cl.N=C(N)c1ccc(OCCCOc2cccc(-c3cc4cc(C(=N)N)ccc4o3)c2)cc1 [Compound 32, 2-(3-(3-(4-Carbamimidoylphenoxy)propoxy)phenyl)benzofuran-5-carboxamidine dihydrochloride] | 10400 | 907 | 10 | ≤ 1 | 10 | 175 to 178 | 18.7 | 39.7 | 16100 | 3420 ± 900 | 3420 ± 900 | > 100 | 10 | 100 | 0.53 µg/mL and 1 µM | – |
| CC(C)NC(=N)c1ccc(OCCCOc2cccc(-c3cc4cc(C(=N)NC(C)C)ccc4o3)c2)cc1.Cl.Cl [Compound 33, 2-(3-(3-(4-(N-Isopropylcarbamimidoyl)phenoxy)propoxy)phenyl)-N-isopropylbenzofuran-5-carboxamidine dihydrochloride] | 26500 | 547 | 10 | ≤ 1 | 10 | 205 to 208 | 14.8 | 61.3 | 93600 | 4490 ± 560 | 4490 ± 560 | > 100 | 10 | 100 | < 0.62 µg/mL and < 1 µM | – |
| CC(C)NC(=N)c1ccc(OCCCCCOc2cccc(-c3cc4cc(C(=N)NC(C)C)ccc4o3)c2)cc1.Cl.Cl [Compound 39, 2-(3-(5-(4-(N-Isopropylcarbamimidoyl)phenoxy)pentyloxy)phenyl)-N-isopropylbenzofuran-5-carboxamidine dihydrochloride] | 10100 | 452 | 100 | 10 | 100 | 225 to 227 | 20.8 | 123 | 26000 | 6860 ± 2100 | 6860 ± 2100 | > 100 | 10 | 100 | 1.12 µg/mL and 1.8 µM | – |
| CC(C)NC(=N)c1ccc(OCCCOc2ccc(-c3cc4cc(C(=N)NC(C)C)ccc4o3)cc2)cc1.Cl.Cl [Compound 45, 2-(4-(3-(4-(N-Isopropylcarbamimidoyl)phenoxy)propoxy)phenyl)-N-isopropylbenzofuran-5-carboxamidine dihydrochloride] | 45600 | 40.9 | 10 | 10 | 10 | 301 to 302 | – | 41.8 | 70400 | 1560 ± 580 | – | – | 100 | > 100 | 1.12 µg/mL and 1.86 µM | – |
| Cl.Cl.N=C(N)c1ccc(OCCCCOc2ccc(-c3cc4cc(C(=N)N)ccc4o3)cc2)cc1 [Compound 47, 2-(4-(4-(4-Carbamimidoylphenoxy)butoxy)phenyl)benzofuran-5-carboxamidine dihydrochloride] | 1300 | 164 | 10 | ≤ 1 | 10 | 310 | 11.8 | 141 | 2490 | 610 ± 530 | 610 ± 530 | > 100 | 10 | 100 | 31.8 µg/mL and 59.8 µM | – |
| Cl.Cl.c1cc(C2=NCCN2)ccc1OCCCCOc1ccc(-c2cc3cc(C4=NCCN4)ccc3o2)cc1 [Compound 49, 2-(2-(4-(4-(4-(4,5-Dihydro-1H-imidazol-2-yl)phenoxy)butoxy)phenyl)benzofuran-5-yl) -4,5-dihydro-1H-imidazole dihydrochloride] | 2880 | 374 | – | 100 | > 100 | 291 to 293 | 18.8 | 64.1 | 4510 | 9210 ± 2250 | 9210 ± 2250 | – | 100 | > 100 | – | – |
| Cl.Cl.c1cc(C2=NCCN2)ccc1OCCCCCOc1ccc(-c2cc3cc(C4=NCCN4)ccc3o2)cc1 [Compound 52, 2-(2-(4-(5-(4-(4,5-Dihydro-1H-imidazol-2-yl)phenoxy)pentyloxy)phenyl)benzofuran-5-yl)-4,5-dihydro-1H-imidazole dihydrochloride] | 870 | 338 | 10 | 10 | 10 | 258 to 261 | – | 60 | 2270 | 39400 ± 7350 | – | > 100 | 10 | 100 | 10.1 µg/mL and 16.9 µM | – |
| CC(C)NC(=N)c1ccc(OCCCCCCOc2ccc(-c3cc4cc(C(=N)NC(C)C)ccc4o3)cc2)cc1.Cl.Cl [Compound 54, 2-(4-(6-(4-(N-Isopropylcarbamimidoyl)phenoxy)hexyloxy)phenyl)-N-isopropylbenzofuran-5-carboxamidine dihydrochloride] | 850 | 211 | – | > 100 | > 100 | 288 to 291 | – | 63.4 | 1210 | 5400 ± 1460 | – | – | > 100 | > 100 | 65.8 µg/mL and 102 µM | – |
| Cl.Cl.N=C(N)c1ccc(OCCCOc2cccc(-c3cc4ccc(C(=N)N)cc4o3)c2)cc1 [Compound 56, 2-(3-(3-(4-Carbamimidoylphenoxy)propoxy)phenyl)benzofuran-6-carboxamidine dihydrochloride] | 19800 | 327 | – | – | – | 196 to 200 | – | 84 | 11100 | 11200 ± 280 | 11200 ± 280 | – | – | – | 1.02 µg/mL and 1.93 µM | – |
| Cl.Cl.c1cc(OCCCCCCOc2ccc(C3=NCCN3)cc2)cc(-c2cc3ccc(C4=NCCN4)cc3o2)c1 [Compound 67, 2-(2-(3-(6-(4-(4,5-Dihydro-1H-imidazol-2-yl)phenoxy)hexyloxy)phenyl)benzofuran-6-yl)-4,5-dihydro-1H-imidazole dihydrochloride] | 1790 | 681 | 1.56 | 1.56 | 1.56 | 182 to 186 | – | 41.2 | 3670 | 43500 ± 690 | 43500 ± 690 | > 100 | 12.5 | 12.5 | 18 µg/mL and 29.4 µM | MFC (Cryptococcus neoformans; strain H99): 1.56 µg/mL; MIC80 (Cryptococcus neoformans; strain H99): 0.781 µg/mL; MIC (Cryptococcus neoformans; strain H99, read-out: Cryptococcus neoformans (H99) MIC100): 1.56 µg/mL |
| Cl.Cl.c1cc(C2=NCCN2)ccc1OCCCCCCOc1ccc(-c2cc3ccc(C4=NCCN4)cc3o2)cc1 [Compound 79, 2-(2-(4-(6-(4-(4,5-Dihydro-1H-imidazol-2-yl)phenoxy)hexyloxy)phenyl)benzofuran-6-yl)-4,5-dihydro-1H-imidazole dihydrochloride] | 3440 | 224 | – | – | – | 265 to 269 | – | 31.6 | 2150 | 15300 ± 1720 | 15300 ± 1720 | – | – | – | 2.14 µg/mL and 3.51 µM | – |
| c1cc(C2=NCCN2)cc(-c2cc3cc(C4=NCCN4)ccc3o2)c1 [Compound 168, 2-(3-(5-(4,5-dihydro-1H-imidazol-2-yl)benzofuran-2-yl)phenyl)-4,5-dihydro-1H-imidazole] | 33900 | – | – | – | – | – | – | – | – | – | 23700 ± 170 | – | – | – | – | IC50 [1]: 77.6 nM; IC50 (Plasmodium falciparum): 75.8 nM; IC50 (Trypanosoma cruzi): 39600 nM; IC50 ([2]; read-out: L. Donovani IC50): 23700 ± 170 nM; MIC90 [3, 6]: 10.8 µg/mL and 25.7 µM |
| N=C(NO)c1ccc(-c2cc3cc(C(=N)NO)ccc3o2)cc1 [Compound 178, 2-(4-(N-Hydroxycarbamimidoyl)phenyl)-N-hydroxybenzofuran-5-carboxamidine] | > 235000 | – | – | – | – | – | – | – | – | – | – | – | – | – | – | IC50 [1]: 23600 nM; DNA binding Δ Tm (DNA): 4.50; IC50 (Plasmodium falciparum): 783 nM; IC50 (Trypanosoma cruzi): > 235000 nM; IC50 ([2]; read-out: L. Donovani IC50): > 100000 nM; MIC90 [3, 6]: > 128 µM |
| N=C(NO)c1ccc(OCCCOc2ccc(-c3cc4cc(C(=N)NO)ccc4o3)cc2)cc1 [Compound 182, 2-(4-(3-(4-(N-Hydroxycarbamimidoyl)phenoxy)propoxy)phenyl)-N-hydroxybenzofuran-5-carboxamidine] | 2640 | 1340 | – | – | – | – | 1.10 | 1400 | 1700 | 5020 ± 930 | – | – | – | – | 0.65 µg/mL and 1.2 µM | – |
| CONC(=N)c1ccc2oc(CCCCCc3cc4cc(C(=N)NOC)ccc4o3)cc2c1 [Compound 193, 2-(5-(5-(N-Methoxycarbamimidoyl)benzofuran-2-yl)pentyl)-N-methoxybenzofuran-5-carboxamidine] | 35600 | > 18600 | – | – | – | – | – | > 1860 | 19100 | > 100000 | – | – | – | – | 4.25 µg/mL and 7.88 µM | – |
